One may read the Kd as a measure of binding affinity in units of concentration.

The target in test [1] is T1, hamster galectin-1 mutant N-Gal-1 (monomeric; three hydrophobic N-terminal amino acids disrupted), SEQ ID NO:4 (Cricetulus griseus, UniProt P48538, A7S/C3S/L5Q/V6D).
T1 construct: made in house; host or cells: E. coli
The test is described as follows: Equilibrium dialysis binding of N-acetyllactosamine. An excerpt: (§1) Specific mutations were created in the six N-terminal amino acids (SEQ ID NO:1) of hamster galectin-1, as indicated in FIG. 3 and as described in further detail in Cho and Cummings, Biochemistry, 35:13081, 1996, which is hereby incorporated by reference herein in its entirety. C2S-Gal-1 (SEQ ID NO:2) contains a single replacement of Cys-2 to Ser. V5D-Gal-1 (SEQ ID NO:3) contains a single mutation of Val-5 to Asp. N-Gal-1 (SEQ ID NO:4) contains disruptions of three hydrophobic amino acids at the N-terminus. We also made another mutant construct, termed N/C-Gal-1, which contained the amino terminal changes of N-Gal-1 in addition to multiple changes in specific hydrophobic amino acids at the C-terminus (data not shown). All mutants, except for C2S-Gal-1, behaved as monomers in size exclusion HPLC and native gel electrophoresis. C2S-Gal-1 was indistinguishable from the native lectin in its ability to undergo monomer-dimer equilibrium and in its carbohydrate-binding affinity. […] However, in equilibrium dialysis N-Gal-1 and V5D-Gal-1 bound N-acetyllactosamine with similar affinity (Kd ≈90 μM) to that of the C2S-Gal-1 and the native lectin. […] N/C-Gal-1 was non-functional.

Test [2] deals with hamster galectin-1, native lectin (N-terminus SEQ ID NO:1) (Cricetulus griseus, UniProt P48538). Described as above. Conditions: stated only as similar affinity to the monomeric mutants.
Description: as §1

The target of test [3] is T2, hamster galectin-1 mutant V5D-Gal-1 (Val-5 to Asp), SEQ ID NO:3 (Cricetulus griseus, UniProt P48538, V6D).
T2 construct: made in house; host or cells: E. coli
The test is described as above.
Description: as §1

In test [4] the target is T3, hamster galectin-1 mutant C2S-Gal-1 (Cys-2 to Ser), SEQ ID NO:2 (Cricetulus griseus, UniProt P48538, C3S).
T3 construct: made in house; host or cells: E. coli
The description is as above. Conditions: stated only as similar affinity to the monomeric mutants.
Description: as §1

The target in test [5] is T4, recombinant galectin-1 (Cys at 2nd residue converted to Ser) (Cricetulus griseus, UniProt P48538, C3S).
T4 construct: made in house; host or cells: E. coli
Briefly: Binding of biotinylated galectin-1 to activated neutrophils and desialylated HL-60 cells (flow cytometry). The class given is cell-based, hamster. The following applies: 10 mM sugar; galectin-1 10 μg/ml; activated neutrophils, desialylated HL-60 cells. An excerpt: Isolated neutrophils were activated by treatment with PMA and HL-60 cells were desialylated by treatment with neuraminidase. Heparinized blood was obtained from normal donors. Neutrophils were isolated by dextran sedimentation, hypotonic lysis, and density gradient centrifugation on HISTOPAQUE-1077 (Sigma), as described [G. A. Zimmerman, T. M. McIntyre, and S. M. Prescott, J. Clin. Invest., 76:2235, 1985]. Typically, the polymorphonuclear cells were >90% neutrophils by Wright-Giemsa staining and >90% CD16^+ as assessed by flow cytometry. Neutrophils were activated by treatment with phorbol myristate acetate (PMA) (Sigma) (0.5 μM) for 20 minutes at 37° C. in RPMI containing 20% FCS (0.5 ml). HL-60 cells were routinely maintained in RPMI containing 20% FCS. Desialylated HL-60 cells were prepared by treating 3×10^7 cells with Arthrobacter ureafaciens neuraminidase (Sigma) (100 mU) in 500 μl of RPMI containing 20% FCS for 1 hour at 37° C. […] The washed cells were incubated with FITC-streptavidin (1:100 dilution) (Sigma), washed once with PBS, and analyzed by flow cytometry. […] "Unstained" indicates fluorescence of either resting neutrophils or HL-60 cells incubated in the absence of either MAL or galectin-1. "Control" indicates fluorescence of either activated neutrophils or desialylated HL-60 cells incubated with galectin-1 in the presence of 10 mM lactose.

Test [6] has as its target T4, recombinant galectin-1 (Cys at 2nd residue converted to Ser). The test is described as follows: Galectin-1-induced apoptosis of activated neutrophils and desialylated HL-60 cells (annexin V staining). Conditions: galectin-1 10 μM; lactose 10 mM. The test is classed as cell-based, hamster. Here is the method:
Resting or activated neutrophils (3×10^6 cells) were treated with galectin-1 (10 μM) in 0.5 ml of HBSS (lacking Ca^2+ /Mg^2+ and containing 0.5% human albumin) for 90 minutes at 37° C. in the presence or absence of 10 mM lactose. HL-60 cells and desialylated HL-60 cells (3×10^6 cells/0.5 ml) were treated with galectin-1 (10 μM) for 20 hours at 37° C. in the presence or absence of 10 mM lactose. At the end of the incubations all cells were treated with 10 mM lactose in PBS to disaggregate the cells. […]
Annexin V is a protein that recognizes phosphatidyl serine (PS) and is a convenient marker for apoptosis of neutrophils and other cells (S. J. Martin, C. P. Reutelingsperger, A. J. McGahon, J. A. Rader, R. C. van Schie, D. M. LaFace and D. R. Green DR, J. Exp. Med., 182:1545, 1995; C. H. Homburg, M. de Haas, A. E. von dem Borne, A. J. Verhoeven, C. P. Reutelingsperger and D. Roos, Blood, 85:532, 1995; I. Vermes, C. Haanen, H. Steffens-Nakken, and C. Reutelingsperger, J. Immunol. Methods, 184:39, 1995; Z. Darzynkiewicz, G. Juan, X. Li, W. Gorczyca, T. Murakami, and F. Traganos, Cytometry 27:1, 1997). […] Within 90 minutes following treatment with 10 μM galectin-1, 36% of the activated neutrophils undergo apoptosis, as determined by their staining with annexin V (FIG. 2A). […]

Test [7] shares this target. Briefly: Cell agglutination by galectin-1. The class given is cell-based, hamster. The protocol: In all cases cell binding of galectin-1 to cells was inhibited by 10 mM lactose, a known inhibitor of galectin-1 (FIG. 1), but not by 10 mM maltose, an isomeric, non-inhibitory analog (data not shown). We noted that both activated neutrophils and desialylated HL-60 cells are strongly agglutinated by galectin-1, whereas resting neutrophils and HL-60 cells are not appreciably agglutinated, which further underscores the profound differences in surface phenotypes between resting and activated neutrophils.

T4 sequence (P48538 whole entry C3S): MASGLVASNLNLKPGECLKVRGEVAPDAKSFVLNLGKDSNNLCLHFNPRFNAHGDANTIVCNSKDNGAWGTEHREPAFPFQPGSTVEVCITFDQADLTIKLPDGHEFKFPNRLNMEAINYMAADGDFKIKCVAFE
T2 sequence (P48538 whole entry V6D): as the sequence (P48538 whole entry C3S) above, with S3C, V6D counted along it
Sequence of hamster galectin-1, native lectin (N-terminus SEQ ID NO:1) (P48538 2-135): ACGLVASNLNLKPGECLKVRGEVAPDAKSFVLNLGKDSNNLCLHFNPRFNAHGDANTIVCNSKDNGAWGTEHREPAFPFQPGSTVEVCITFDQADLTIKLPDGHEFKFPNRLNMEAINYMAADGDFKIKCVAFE
T1 sequence (P48538 2-135 C3S/L5Q/V6D/A7S limits assumed): as the sequence (P48538 2-135) above, with C2S, L4Q, V5D, A6S counted along it
T3 sequence (P48538 whole entry C3S): as the sequence (P48538 whole entry C3S) above

On to `CC(=O)N[C@H]1C(O)O[C@H](CO)[C@@H](O[C@@H]2O[C@H](CO)[C@H](O)[C@H](O)[C@H]2O)[C@@H]1O` (some centres unmarked) [N-acetyllactosamine], for which the Kd in test [1], in test [2], in test [3] and in test [4] was about 90 µM in each case.
For `OC[C@H]1O[C@@H](O[C@H]2[C@H](O)[C@@H](O)C(O)O[C@@H]2CO)[C@H](O)[C@@H](O)[C@H]1O` (some centres unmarked) [lactose], the “Inhibition of cell binding of galectin-1” value in test [5] was “inhibited”. For the same molecule, the “Inhibition of apoptosis-inducing activity of galectin-1” value in test [6] was “inhibited”. The “Inhibition of cell agglutinating activity of galectin-1” value in test [7] was “inhibited”.
With `OC[C@H]1O[C@H](O[C@H]2[C@H](O)[C@@H](O)[C@H](O)O[C@@H]2CO)[C@H](O)[C@@H](O)[C@@H]1O` [maltose], in test [5], the “Inhibition of cell binding of galectin-1” value is listed as “non-inhibitory”.
